Reference: publication PMC5638327, “Comparison of bioavailability and antiplatelet action of ticagrelor in patients with ST-elevation myocardial infarction and non-ST-elevation myocardial infarction: A prospective, observational, single-centre study” (PLoS ONE, 2017)

Columns and labels:
platelet reactivity [1] = assay: Platelet reactivity by the VASP assay after ticagrelor loading dose; format: in vivo, human (patients with myocardial infarction); details: median [interquartile range]; for time to achieve platelet inhibition below the cut-off value for HPR (VASP): HPR = platelet reactivity index >50%
Method: (§1) Consecutive STEMI and NSTEMI patients admitted to the study site (Cardiology Department, Dr. A. Jurasz University Hospital, Bydgoszcz, Poland) were screened for eligibility. After admission to the study centre, confirmation of the initial diagnosis of STEMI or NSTEMI, and provision of a written informed consent to participate in the trial, all study participants received an oral 300 mg LD of plain aspirin (Polpharma SA, Starogard Gdański, Poland) and 180 mg LD ticagrelor in integral tablets with 250 mL tap water. Subsequently, within 15 minutes of ticagrelor LD, all patients underwent coronary angiography followed by PCI as required. During the periprocedural period, all study participants received unfractionated heparin in body weight adjusted dose according to the European Society of Cardiology (ESC) recommendations. Plasma concentrations of ticagrelor and its active metabolite, as well as their antiplatelet effect, were evaluated according to the sampling schedule employed at our centre in previous PK/PD study (pre-treatment, 0.5 h, 1 h, 2 h, 3 h, 4 h, 6 h and 12 h post ticagrelor LD).
(§2) Blood samples for PK/PD evaluation were obtained from an 18-gauge cannula inserted into one of the forearm veins. The first 5 mL blood was discarded to avoid spontaneous platelet activation. In each patient specimens were collected at the eight pre-defined time. Detailed description of blood sample processing has been published in the study protocol (S1 File).
(§3) Platelet reactivity was assessed using VASP and Multiplate. The VASP assay (Biocytex, Inc., Marseille, France) was used in all study participants, while Multiplate (Roche Diagnostics International Ltd., Rotkreuz, Switzerland) was used in all except in those treated with glycoprotein (GP) IIb/IIIa receptor inhibitors. Pharmacodynamic evaluation was performed according to the manufacturers' instructions. HPR was defined as platelet reactivity index >50% for the VASP assay and AUC >46 units (U) for Multiplate. […]
(§4) Table 1 Inclusion and exclusion criteria of the PINPOINT study
(§5) Inclusion criteria Exclusion criteria
(§6) ▸ Provision of informed consent prior to any ▸ Treatment with ticlopidine, clopidogrel, prasugrel or ticagrelor within study-specific procedure 14 days before the study enrolment
(§7) ▸ Diagnosis of STEMI or NSTEMI ▸ Hypersensitivity to ticagrelor
(§8) ▸ Men or non-pregnant women ▸ Current treatment with oral anticoagulant or chronic therapy with low-molecular-weight heparin
(§9) ▸ Provision of informed consent for angiography ▸ Active bleeding […]
(§10) ▸ History of intracranial haemorrhage
(§11) ▸ Fibrinolytic treatment during the index event
(§12) ▸ Recent gastrointestinal bleeding (within 30 days)
(§13) ▸ History of coagulation disorders
(§14) ▸ History of moderate or severe hepatic impairment
(§15) ▸ History of major surgery or severe trauma (within 3 months)
(§16) ▸ Second or third degree atrioventricular block during screening for […]
(§17) ▸ Patient requiring dialysis
(§18) ▸ Manifest infection or inflammatory state
(§19) ▸ Killip class III or IV during screening for eligibility
(§20) ▸ Current therapy with strong CYP3A inhibitors or strong CYP3A […]
(§21) NSTEMI, non-ST-elevation myocardial infarction; PCI, percutaneous coronary intervention; STEMI, ST-elevation myocardial infarction. […]
Assessment of pharmacodynamics ticagrelor, β-blockers, statins and ACE inhibitors or angio-Platelet VASP assay (Biocytex, Marseille, France) will be tensin II receptor blockers, if not contraindicated. applied to all study participants at all predeﬁned time Morphine will be used at the discretion of the ambulance points. MEA (Roche Diagnostics International, Rotkreuz, staff and the attending physician. The type of implanted Switzerland) will be used at all predeﬁned time points stent and choice of the access site for coronary invasive ( ﬁgure 1) for all study participants with the exception of procedure (radial or femoral ) will be at the discretion of those treated with glycoprotein IIb/IIIa (GP IIb/IIIa) the operator. During the periprocedural period, all study […]

platelet reactivity [2] = assay: Platelet reactivity by Multiplate (multiple electrode aggregometry) after ticagrelor loading dose; format: in vivo, human (patients with myocardial infarction); details: median [interquartile range]; for time to achieve platelet inhibition below the cut-off value for HPR (Multiplate): HPR = AUC >46 U
Method: as §1, §2, §3, §4, §5, §6, §7, §8, §9, §10, §11, §12, §13, §14, §15, §16, §17, §18, §19, §20, §21
MEA (Roche Diagnostics International, Rotkreuz, staff and the attending physician. The type of implanted Switzerland) will be used at all predeﬁned time points stent and choice of the access site for coronary invasive ( ﬁgure 1) for all study participants with the exception of procedure (radial or femoral ) will be at the discretion of those treated with glycoprotein IIb/IIIa (GP IIb/IIIa) the operator. During the periprocedural period, all study receptor inhibitors as this therapy may affect the results participants will receive unfractionated heparin in body of platelet reactivity assessment per formed with MEA weight adjusted dose according to the ESC recommenda-( ﬁgure 2). Pharmacodynamic assessment with VASP and tions.2336Administration of GP IIb/IIIa receptor in- […]

platelet inhibition = tested on: platelet inhibition; set-up: method as in earlier work; details: 2 hours after ticagrelor LD; ref 18 20 25 (of the protocol); cited from earlier work
[3] = NSTEMI, 0.5 h after 180 mg ticagrelor LD
[4] = STEMI, 0.5 h after 180 mg ticagrelor LD

Question: Which “Platelet reactivity (VASP)” value (platelet reactivity [1]; [3]) does the source give for `CCCSc1nc(N[C@@H]2C[C@H]2c2ccc(F)c(F)c2)c2nnn([C@@H]3C[C@H](OCCO)[C@@H](O)[C@H]3O)c2n1` [ticagrelor] here?
Answer: Its value is 57.0 [30.2–89.4] %.

Question: What about the “Platelet reactivity (VASP)” value (platelet reactivity [1]; NSTEMI, 1 h after 180 mg ticagrelor LD) of the same compound?
Answer: Its value is 40.8 [23.7–69.2] %.

Question: And the “Platelet reactivity (VASP)” value (platelet reactivity [1]; NSTEMI, 3 h after 180 mg ticagrelor LD)?
Answer: The value was 32.2 [14.7–38.7] %.

Question: And the “Platelet reactivity (VASP)” value (platelet reactivity [1]; NSTEMI, 4 h after 180 mg ticagrelor LD)?
Answer: The value was 21.1 [17.5–43.1] %.

Question: What about the “time to achieve platelet inhibition below the cut-off value for HPR (VASP)” value (platelet reactivity [1]; NSTEMI) of the same compound?
Answer: The value was 1.0 [0.5–2.0] h.

Question: And the “Platelet reactivity (VASP)” value (platelet reactivity [1]; [4])?
Answer: The value was 83.1 [74.5–87.8] %.

Question: What about the “Platelet reactivity (VASP)” value (platelet reactivity [1]; STEMI, 1 h after 180 mg ticagrelor LD) of the same compound?
Answer: The value was 80.7 [40.4–90.5] %.

Question: And the “Platelet reactivity (VASP)” value (platelet reactivity [1]; STEMI, 3 h after 180 mg ticagrelor LD)?
Answer: The value was 45.0 [26.4–80.9] %.

Question: What about the “Platelet reactivity (VASP)” value (platelet reactivity [1]; STEMI, 4 h after 180 mg ticagrelor LD) of the same compound?
Answer: Its value is 36.5 [22.2–69.7] %.

Question: And the “time to achieve platelet inhibition below the cut-off value for HPR (VASP)” value (platelet reactivity [1]; STEMI)?
Answer: The value was 2.5 [1.0–6.0] h.

Question: And the “Platelet reactivity (Multiplate)” value (platelet reactivity [2]; [3])?
Answer: Its value is 49.0 [21.0–86.0] U.

Question: What about the “Platelet reactivity (Multiplate)” value (platelet reactivity [2]; NSTEMI, 2 h after 180 mg ticagrelor LD) of the same compound?
Answer: Its value is 18.0 [10.0–31.0] U.

Question: And the “time to achieve platelet inhibition below the cut-off value for HPR (Multiplate)” value (platelet reactivity [2]; NSTEMI)?
Answer: Its value is 0.5 [0.5–2.0] h.

Question: What about the “Platelet reactivity (Multiplate)” value (platelet reactivity [2]; [4]) of the same compound?
Answer: Its value is 88.0 [51.5–103.5] U.

Question: And the “Platelet reactivity (Multiplate)” value (platelet reactivity [2]; STEMI, 2 h after 180 mg ticagrelor LD)?
Answer: The value was 36.0 [22.0–52.5] U.

Question: What about the “time to achieve platelet inhibition below the cut-off value for HPR (Multiplate)” value (platelet reactivity [2]; STEMI) of the same compound?
Answer: Its value is 2.0 [0.5–3.0] h.

Question: And the “patients with STEMI with inadequate platelet inhibition” value (platelet inhibition)?
Answer: Its value is at most 60%.
